The numbers were not newly measured in US20260345798A1, “COMPOUNDS AND METHODS OF USE THEREOF” (Virginia Commonwealth University, priority 2023, published 2026), which cites them from elsewhere.

As a reminder, the pKd is the Kd on a negative log10 scale, so that one unit is a factor of ten.

Molecules are shown by their SMILES. pKd: −log10 of the molar value.

Data set [1] relates to non-transformed normal or transformed cells. The conditions noted are these: other cancer contexts; cited from earlier work.
Data set [2] deals with PDZ domains in other sequence-similar proteins. Particulars: cited from earlier work.
Another data set has as its target T1, MDA-9/Syntenin (Homo sapiens, UniProt O00560).
T1 sequence (O00560 1-298): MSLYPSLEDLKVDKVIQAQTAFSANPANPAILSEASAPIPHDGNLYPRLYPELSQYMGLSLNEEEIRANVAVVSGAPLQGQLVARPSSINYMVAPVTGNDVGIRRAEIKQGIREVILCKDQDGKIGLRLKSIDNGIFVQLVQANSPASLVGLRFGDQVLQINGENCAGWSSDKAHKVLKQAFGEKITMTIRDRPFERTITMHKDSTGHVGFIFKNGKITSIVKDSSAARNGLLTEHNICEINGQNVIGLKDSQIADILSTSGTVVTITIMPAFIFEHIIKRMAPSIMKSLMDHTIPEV
Particulars: literature comparison; cited from earlier work.

Another data set relates to T cells. Particulars: cited from earlier work.
The subject of another data set is cancer invasion. Particulars: in vitro and in vivo, multiple experimental animal models; cited from earlier work.
The subject of data set [3] is second PDZ2 domain of MDA-9/Syntenin. Particulars: cited from earlier work.

With `Cc1cc(NC(=O)c2nc3nc4c(c(=O)n3[nH]2)CCC4)c(C)cc1NC(=O)CCc1nnc(-c2ccccc2)o1` [PDZ1i], the “detrimental effect on cells” value in data set [1] is reported as “not detrimental”. For the same compound, the “binding to PDZ domains in other sequence-similar proteins” value in data set [2] was “without appreciable binding”. In addition, the pKd on MDA-9/Syntenin was 4.64. The “T cell infiltration into the tumor environment” value in the data set with T cells is “causes T cell infiltration into the tumor environment”. Besides, the “blocking of cancer invasion” value in the data set on cancer invasion is reported as “effectively blocks cancer invasion”. Further, the “binding to PDZ2 domain of MDA-9/Syntenin” value in data set [3] is “without appreciable binding”.
